From patent US5167949A, “4(3H)-pteridinones, preparation processes and drugs containing them” (Lipha, Lyonnaise Industrielle Pharmaceutique, priority 1989, dated 1992)
Read-outs that look alike come from different tables or passages of the source.

What was measured:
[1] = tested on: passive cutaneous anaphylaxis; assay: passive cutaneous anaphylaxis (PCA) test; assay type: in vivo; conditions: Rattus norvegicus, rats, dose decreasing by 50% the skin area occupied by the dye
Method: The anti-allergic activity was measured in rats by the passive cutaneous anaphylaxis or PCA test described by I. Mota, Life Sciences 1963, 7, 465 and Z. Ovary et al., Proceedings of Society of Experimental Biology and Medicine 1952, 81, 584.
In this test, the skin of rats is sensitized by 4 intradermal injections of a homologous anti-ovalbumin serum diluted 15-fold. On the day following sensitization, the animals receive 1 ml/kg of a 2.5% saline solution of Evans blue and 1 ml/kg of a 2.5% saline solution of ovalbumin simultaneously by intravenous injection. The test compounds are administered before the antigen, the time interval being 5 min by intraperitoneal injection and 10 min by the oral route. Thirty minutes after injection of the ovalbumin/dye mixture, the animals are sacrificed and the intensity of the allergic response is determined by measuring the area of skin coloration. The protection provided by the products of the invention is expressed as an ED50 (dose decreasing by 50% the skin area occupied by the dye). Four rats are used for each dose of product.

in vivo = conditions: read-out: median lethal dose
Method: By way of illustration, for the compound described in Example 1, the median lethal doses determined orally on rats and on mice are above 2,000 mg/kg, and the median lethal doses determined intraperitoneally and intravenously on mice are above 1,600 mg/kg.

PAF-acether = assay: bronchospasm induced in anaesthetized guinea pigs by PAF-acether; assay type: in vivo; conditions: Cavia porcellus, intravenous, PAF-acether 10 ng/kg/IV
Source text: The compounds described are distinguished, in addition, from known products by their long duration of action and by a capacity for antagonizing the effects of PAF-acether, especially its bronchoconstrictor effects.

[2] = ip, intraperitoneal, 5 min before antigen

| SMILES | ED50 [1, 2] | ED50 ([1]; oral, 10 min before antigen) | other results |
| --- | --- | --- | --- |
| CCCOCc1nc2nccnc2c(=O)[nH]1 [Example 4, 2-Propoxymethyl-4(3H)-pteridinone] | 9 mg/kg | 25 mg/kg |  |
| CCOCc1nc2nccnc2c(=O)[nH]1 [Example 1, 2-Ethoxymethyl-4(3H)-pteridinone] | 7 mg/kg | 24 mg/kg | LD50 (in vivo; mouse, ip, mice, intraperitoneal): > 1600 mg/kg; LD50 (in vivo; mouse, mice, intravenous): > 1600 mg/kg; LD50 (in vivo; mouse, mice, oral): > 2000 mg/kg; LD50 (in vivo; rat, rats, oral): > 2000 mg/kg; ED50 (PAF-acether): 0.068 mg/kg |
| O=c1[nH]c(COc2ccccc2)nc2nccnc12 [Example 9, 2-Phenoxymethyl-4(3H)-pteridinone] | 39 mg/kg |  |  |
| O=c1[nH]c(COCc2ccccc2)nc2nccnc12 [Example 11, 2-Benzyloxymethyl-4(3H)-pteridinone] | 10 mg/kg | 48 mg/kg |  |
| CC(C)OCc1nc2nccnc2c(=O)[nH]1 [Example 13, 2-Isopropoxymethyl-4(3H)-pteridinone] | 14 mg/kg |  |  |
| CCOCc1nc2nc(O)cnc2c(=O)[nH]1 [Example 7, 2-Ethoxymethyl-7-hydroxy-4(3H)-pteridinone] | 21 mg/kg |  |  |
| COCOCc1nc2nccnc2c(=O)[nH]1 [Example 12, 2-Methoxymethoxymethyl-4(3H)-pteridinone] | 18 mg/kg |  |  |
| COCc1nc2nccnc2c(=O)[nH]1 [Example 3, 2-Methoxymethyl-4(3H)-pteridinone] | 14 mg/kg | 33 mg/kg |  |
